In the NIST ThermoML archive (doi:10.1021/je9008014):
± gives the expanded uncertainty stated by the source.

Experiment: xn = mol fraction of the nth substance listed
Conditions: 101 kPa, Liquid; for mass density: Pycnometric method

CCOCCOCCOCCO [2-(2-(2-ethoxyethoxy)ethoxy)ethanol] + O
Conditions	mass density, 293.15 K [kg/m3]	mass density, 298.15 K [kg/m3]	mass density, 303.15 K [kg/m3]	mass density, 308.15 K [kg/m3]	mass density, 313.15 K [kg/m3]	viscosity, 293.15 K [mPa·s]	viscosity, 298.15 K [mPa·s]	viscosity, 303.15 K [mPa·s]
x1 = 0.01119	1006.9 ± 2	–	1003.7 ± 2	–	999.7 ± 2	1.484 ± 0.036	–	1.129 ± 0.028
x1 = 0.02492	1016.6 ± 2	–	1012.6 ± 2	–	1007.5 ± 2	2.221 ± 0.052	–	1.595 ± 0.038
x1 = 0.04128	1026.2 ± 2.1	–	1020.7 ± 2.1	–	1014.8 ± 2	3.256 ± 0.074	–	2.344 ± 0.054
x1 = 0.06284	1035.1 ± 2.1	–	1028.7 ± 2.1	–	1021.8 ± 2.1	4.832 ± 0.11	–	3.349 ± 0.075
x1 = 0.09179	1040.8 ± 2.1	–	1032.8 ± 2.1	–	1025.3 ± 2.1	6.993 ± 0.14	–	4.589 ± 0.1
x1 = 0.1317	1042.7 ± 2.1	–	1034.9 ± 2.1	–	1026.5 ± 2.1	9.102 ± 0.17	–	5.955 ± 0.12
x1 = 0.1905	1042.2 ± 2.1	–	1033.9 ± 2.1	–	1025.5 ± 2.1	10.54 ± 0.19	–	7.032 ± 0.14
x1 = 0.2885	1038.7 ± 2.1	–	1029.8 ± 2.1	–	1021.4 ± 2.1	11.29 ± 0.21	–	7.522 ± 0.15
x1 = 0.4019	1033.6 ± 2.1	–	1024.9 ± 2.1	–	1016.5 ± 2.1	11.34 ± 0.21	–	7.547 ± 0.15
x1 = 0.4747	1031.1 ± 2.1	–	1022.3 ± 2.1	–	1013.9 ± 2.1	10.93 ± 0.2	–	7.378 ± 0.15
x1 = 0.6076	1027.3 ± 2.1	–	1018.5 ± 2.1	–	1010.2 ± 2	10.06 ± 0.19	–	6.868 ± 0.14
x1 = 0.7399	1024.4 ± 2.1	–	1015.5 ± 2.1	–	1007.4 ± 2	9.168 ± 0.18	–	6.386 ± 0.13
x1 = 0.8176	1022.9 ± 2.1	–	1014.1 ± 2.1	–	1006.1 ± 2	8.738 ± 0.17	–	6.178 ± 0.13
x1 = 0.8956	1021.8 ± 2.1	–	1013.1 ± 2.1	–	–	8.353 ± 0.17	–	5.884 ± 0.12
x1 = 1	1020.6 ± 2.1	1016.3 ± 2.1	1011.9 ± 2.1	1008.1 ± 2.1	–	7.796 ± 0.16	6.739 ± 0.14	5.657 ± 0.12
